Data on seven molecules can be found in patent US20260001914A1, “MACROCYCLIC PEPTIDES TARGETING KRAS” (Merck Sharp & Dohme LLC, priority 2022, published 2026).

The structures appear in SMILES notation. *1 amine or outer side, *2 acyl side, *3 side chain or, on linkers, in order; H or OH if unused. Where a SMILES comes first, the peptide text is derived from it. [ ]: non-standard residue; d: D form. Ala(pyrimidin-5-yl) = N[C@@H](Cc1cncnc1)C(=O)O; NMe3Pal(5-F) = CN[C@@H](Cc1cncc(F)c1)C(=O)O; Leu(4,5-dehydro) = C=C(C)C[C@H](N)C(=O)O; X11 = CC(C)(F)CC[C@H](N[*:1])C(=O)[*:2]; Nle(5,5-F2) = CC(F)(F)CC[C@H](N)C(=O)O; Phe(2-F) = N[C@@H](Cc1ccccc1F)C(=O)O; X1 = O=C(C12CC(CN[*:1])(C1)C2)[*:2]; Ala(cPr) = N[C@@H](CC1CC1)C(=O)O; NMeF = CN[C@@H](Cc1ccccc1)C(=O)O; PhLac = O=C(O)[C@@H](O)Cc1ccccc1; 3Pal = N[C@@H](Cc1cccnc1)C(=O)O; Cba = N[C@@H](CC1CCC1)C(=O)O; hLeu = CC(C)CC[C@H](N)C(=O)O; NMeA = CN[C@@H](C)C(=O)O; Pra = C#CC[C@H](N)C(=O)O

In the experiment the target is KRAS-G12D protein (Homo sapiens, UniProt P01116, G12D). The experiment in a line: SOS-mediated nucleotide exchange assay (BODIPY-GDP / Tb-streptavidin TR-FRET). In kind it is biochemical. Background: Time-resolved FRET reads energy transfer from a long-lived donor to a nearby acceptor.
Sequence of KRAS-G12D protein (P01116 1-188 isoform P01116-2 G12D): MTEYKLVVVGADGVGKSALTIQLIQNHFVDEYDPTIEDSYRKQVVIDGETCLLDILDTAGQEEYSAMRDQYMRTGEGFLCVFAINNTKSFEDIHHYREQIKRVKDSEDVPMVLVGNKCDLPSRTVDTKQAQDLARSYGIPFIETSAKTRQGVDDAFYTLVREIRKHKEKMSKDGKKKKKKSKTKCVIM
Regarding `CC(C)CC[C@@H]1NC(=O)[C@H](Cc2ccccc2F)NC(=O)[C@H](CC2CC2)NC(=O)[C@H](Cc2cccnc2)NC(=O)[C@H](C)N(C)C(=O)[C@H](Cc2ccccc2)OC(=O)C23CC(CNC(=O)[C@H](Cc4cncc(F)c4)N(C)C1=O)(C2)C3` [compound 283, cyclo(FLac-NMeA-3Pal-cPrA-Phe2F-hL-NMe3Pal5F-amBCP)] (cyclo([3Pal][Ala(cPr)][Phe(2-F)][hLeu][NMe3Pal(5-F)][X1][PhLac][NMeA])), the midpoint of the response, the EC50, lay at 3 nM.
With `C[C@H]1C(=O)N[C@@H](Cc2cccnc2)C(=O)N[C@@H](CC2CC2)C(=O)N[C@@H](Cc2ccccc2F)C(=O)N[C@@H](CCC(C)(C)F)C(=O)N(C)[C@@H](Cc2cncc(F)c2)C(=O)NCC23CC(C2)(C3)C(=O)O[C@@H](Cc2ccccc2)C(=O)N1C` [compound 284, cyclo(FLac-NMeA-3Pal-cPrA-Phe2F-hL3F-NMe3Pal5F-amBCP)] (cyclo([3Pal][Ala(cPr)][Phe(2-F)][X11][NMe3Pal(5-F)][X1][PhLac][NMeA])) the figure was 2 nM.
With `C[C@H]1C(=O)N[C@@H](Cc2cccnc2)C(=O)N[C@@H](CC2CCC2)C(=O)N[C@@H](Cc2ccccc2F)C(=O)N[C@@H](CCC(C)(F)F)C(=O)N(C)[C@@H](Cc2cncc(F)c2)C(=O)NCC23CC(C2)(C3)C(=O)O[C@@H](Cc2ccccc2)C(=O)N1C` [compound 285, cyclo(FLac-NMeA-3Pal-cBuA-Phe2F-Nle3F2-NMe3Pal5F-amBCP)] (cyclo([3Pal][Cba][Phe(2-F)][Nle(5,5-F2)][NMe3Pal(5-F)][X1][PhLac][NMeA])) the figure was 13 nM; with `C#CC[C@@H]1NC(=O)[C@H](CC2CC2)NC(=O)[C@H](Cc2cncnc2)NC(=O)[C@H](C)N(C)C(=O)[C@H](Cc2ccccc2)OC(=O)C23CC(CNC(=O)[C@H](Cc4ccccc4)N(C)C(=O)[C@H](CCC(C)C)NC1=O)(C2)C3` [compound 286, cyclo(FLac-NMeA-PyrimAla-cPrA-Pra-hL-NMeF-amBCP)] (cyclo([Ala(cPr)][Pra][hLeu][NMeF][X1][PhLac][NMeA][Ala(pyrimidin-5-yl)])), 1990 nM.
On to `C=C(C)C[C@@H]1NC(=O)[C@H](CC2CC2)NC(=O)[C@H](Cc2cncnc2)NC(=O)[C@H](C)N(C)C(=O)[C@H](Cc2ccccc2)OC(=O)C23CC(CNC(=O)[C@H](Cc4ccccc4)N(C)C(=O)[C@H](CCC(C)C)NC1=O)(C2)C3` [compound 287, cyclo(FLac-NMeA-PyrimAla-cPrA-deHLeu-hL-NMeF-amBCP)] (cyclo([Ala(cPr)][Leu(4,5-dehydro)][hLeu][NMeF][X1][PhLac][NMeA][Ala(pyrimidin-5-yl)])), for which the EC50 (commonly the concentration at which the effect is half-maximal) stood at 720 nM.
With `C[C@H]1C(=O)N[C@@H](Cc2cncnc2)C(=O)N[C@@H](CCC(C)(F)F)C(=O)N[C@@H](Cc2ccccc2F)C(=O)N[C@@H](CCC(C)(F)F)C(=O)N(C)[C@@H](Cc2ccccc2)C(=O)NCC23CC(C2)(C3)C(=O)O[C@@H](Cc2ccccc2)C(=O)N1C` [compound 288, cyclo(FLac-NMeA-PyrimAla-Nle3F2-Phe2F-Nle3F2-NMeF-amBCP)] (cyclo([NMeA][Ala(pyrimidin-5-yl)][Nle(5,5-F2)][Phe(2-F)][Nle(5,5-F2)][NMeF][X1][PhLac])) the figure was 247 nM; with `C[C@H]1C(=O)N[C@@H](Cc2cccnc2)C(=O)N[C@@H](CC2CC2)C(=O)N[C@@H](Cc2ccccc2F)C(=O)N[C@@H](CCC(C)(F)F)C(=O)N(C)[C@@H](Cc2ccccc2)C(=O)NCC23CC(C2)(C3)C(=O)O[C@@H](Cc2ccccc2)C(=O)N1C` [compound 289, cyclo(FLac-NMeA-3Pal-cPrA-Phe2F-Nle3F2-NMeF-amBCP)] (cyclo([3Pal][Ala(cPr)][Phe(2-F)][Nle(5,5-F2)][NMeF][X1][PhLac][NMeA])), 9 nM.
